# Assay results taken from article PMC11966747, “Next Generation Risk Assessment of Acute Neurotoxicity from Organophosphate Exposures Using the In Vitro–In Silico Derived Dietary Comparator Ratio” (Environmental Science & Technology, 2025).
# Like-named read-outs stand apart in the source and are kept apart here.
# Columns and labels:
# [1] = target: T1, erythrocyte AChE (Homo sapiens, UniProt P22303); assay: Exposure Activity Ratio (EAR) and Dietary Comparator Ratio (DCR) calculation; parameters: from tissue; host or cells: human whole peripheral blood (erythrocytes), K2EDTA anticoagulant; settings: human
# [2] = target: T1, erythrocyte AChE; settings: cited from earlier work; for reported or expected adverse health outcome: human, ref Table S2
# [3] = QSAR-based prediction; ref Punt et al. 2022; Moerenhout et al. 2024; cited from earlier work
# [4] = 214 mg/kg BW (15 g) acute oral, person, ref Klemmer et al. 1978
# [5] = 357 mg/kg BW (25 g) acute oral, person seven, ref Klemmer et al. 1978
# [6] = 357 mg/kg BW (25 g) acute oral, person six, ref Klemmer et al. 1978
# [7] = 643 mg/kg BW (45 g) acute oral, person, ref Klemmer et al. 1978
# T1 sequence (P22303 32-617 isoform P22303-2 limits assumed): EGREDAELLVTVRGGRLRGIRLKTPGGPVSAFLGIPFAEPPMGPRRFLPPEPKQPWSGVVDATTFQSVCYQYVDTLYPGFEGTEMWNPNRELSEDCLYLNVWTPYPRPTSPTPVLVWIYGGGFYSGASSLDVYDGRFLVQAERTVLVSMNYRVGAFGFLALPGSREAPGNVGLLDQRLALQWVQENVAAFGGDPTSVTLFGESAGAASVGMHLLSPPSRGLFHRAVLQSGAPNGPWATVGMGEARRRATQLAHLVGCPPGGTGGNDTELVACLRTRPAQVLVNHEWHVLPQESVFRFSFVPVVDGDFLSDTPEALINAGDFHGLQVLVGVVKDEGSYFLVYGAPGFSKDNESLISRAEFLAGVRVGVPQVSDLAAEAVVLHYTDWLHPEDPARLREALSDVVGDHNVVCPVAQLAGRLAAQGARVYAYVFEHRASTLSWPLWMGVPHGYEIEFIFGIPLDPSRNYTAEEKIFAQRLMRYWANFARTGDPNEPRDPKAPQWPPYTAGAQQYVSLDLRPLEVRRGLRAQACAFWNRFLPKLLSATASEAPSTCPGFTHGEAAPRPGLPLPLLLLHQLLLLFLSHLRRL
smiles,measurement,setting,value
CCOP(=S)(OCC)Oc1cc(C)nc(C(C)C)n1 [diazinon],calculated DCR value,[1]; single oral 0.011 mg/kg BW,2.1 × 10^–4
same,calculated EARtest value,[1]; single oral 0.011 mg/kg BW,8.3 × 10^–6
same,calculated DCR value,[1]; single oral 0.03 mg/kg BW,5.7 × 10^–4
same,calculated EARtest value,[1]; single oral 0.03 mg/kg BW,2.3 × 10^–5
same,calculated DCR value,[1]; single oral 0.12 mg/kg BW,2.3 × 10^–3
same,calculated EARtest value,[1]; single oral 0.12 mg/kg BW,9.1 × 10^–5
same,calculated DCR value,[1]; single oral 0.20 mg/kg BW,3.8 × 10^–3
same,calculated EARtest value,[1]; single oral 0.20 mg/kg BW,1.5 × 10^–4
same,calculated EARtest value,[1]; single oral 0.21 mg/kg BW,1.6 × 10^–4
same,calculated EARtest value,[1]; single oral 0.30 mg/kg BW,2.3 × 10^–4
same,calculated DCR value,[1]; single oral 200 mg/kg BW,2.1
same,calculated EARtest value,[1]; single oral 200 mg/kg BW,0.084
same,calculated DCR value,[1]; single oral 214 mg/kg BW,2.2
same,calculated EARtest value,[1]; single oral 214 mg/kg BW,0.085
same,calculated DCR value,[1]; single oral 293 mg/kg BW,2.3
same,calculated EARtest value,[1]; single oral 293 mg/kg BW,0.089
same,calculated DCR value,[1]; single oral 323 mg/kg BW,2.3
same,calculated EARtest value,[1]; single oral 323 mg/kg BW,0.090
same,calculated DCR value,[1]; single oral 357 mg/kg BW,2.3
same,calculated EARtest value,[1]; single oral 357 mg/kg BW,0.091
same,calculated DCR value,[1]; single oral 429 mg/kg BW,2.3
same,calculated EARtest value,[1]; single oral 429 mg/kg BW,0.093
same,calculated DCR value,[1]; single oral 643 mg/kg BW,2.4
same,calculated EARtest value,[1]; single oral 643 mg/kg BW,0.095
same,Reported erythrocyte AChE activity/inhibition,"[2]; 0.011 mg/kg BW single oral, 4 male and 1 female volunteers, ref Garfitt et al. 2002",No erythrocyte AChE inhibition
same,Reported erythrocyte AChE activity/inhibition,"[2]; 0.03 mg/kg BW single oral, 7 male volunteers, ref APVMA. 2011, US EPA. 2001 (original data of Boyeson. 2000)",No erythrocyte AChE inhibition
same,Reported erythrocyte AChE activity/inhibition,"[2]; 0.12 mg/kg BW single oral, 7 male volunteers, ref APVMA. 2011, US EPA. 2001 (original data of Boyeson. 2000)",No erythrocyte AChE inhibition
same,Reported erythrocyte AChE activity/inhibition,"[2]; 0.20 mg/kg BW single oral, 7 male volunteers, ref APVMA. 2011, US EPA. 2001 (original data of Boyeson. 2000)",No erythrocyte AChE inhibition
same,Reported erythrocyte AChE activity/inhibition,"[2]; 0.21 mg/kg BW single oral, 7 male volunteers, APVMA: significant inhibition, US EPA: limited, ref APVMA. 2011, US EPA. 2001 (original data of Boyeson. 2000)",Conflicting opinions
same,Reported concomitant effects (signs and symptoms),"[2]; 0.21 mg/kg BW single oral, 7 male volunteers, might occur, ref APVMA. 2011, US EPA. 2001 (original data of Boyeson. 2000)",Mild clinical signs or symptoms
same,Reported erythrocyte AChE activity/inhibition,"[2]; 0.30 mg/kg BW single oral, 1 volunteer, APVMA: inhibition greater than at 0.20 mg/kg BW, US EPA: no inhibition, ref APVMA. 2011, US EPA. 2001 (original data of Boyeson. 2000)",Conflicting opinions
same,Reported concomitant effects (signs and symptoms),"[2]; 0.30 mg/kg BW single oral, 1 volunteer, might occur, ref APVMA. 2011, US EPA. 2001 (original data of Boyeson. 2000)",Mild clinical signs or symptoms
same,Reported concomitant effects (signs and symptoms),"[2]; 200 mg/kg BW (14 - 57 g) acute oral, 14 males and 11 females, ref APVMA. 2011 (original data of Mutalik et al. 1962)",Toxic symptoms occurred
same,Reported concomitant effects (signs and symptoms),[2]; [4],toxic symptoms occurred
same,Reported erythrocyte AChE activity/inhibition,[2]; [4],Significantly decreased
same,Reported concomitant effects (signs and symptoms),"[2]; 293 mg/kg BW (22 g) acute oral, person, ref Poklis et al. 1980",Died
same,Reported concomitant effects (signs and symptoms),"[2]; 323 mg/kg BW (22.6 g) acute oral, person, ref APVMA. 2011 (original data of Banerjee. 1967)",Toxic symptoms occurred
same,Reported concomitant effects (signs and symptoms),[2]; [5],toxic symptoms occurred
same,Reported erythrocyte AChE activity/inhibition,[2]; [5],Significantly decreased
same,Reported concomitant effects (signs and symptoms),[2]; [6],toxic symptoms occurred
same,Reported erythrocyte AChE activity/inhibition,[2]; [6],Significantly decreased
same,Reported concomitant effects (signs and symptoms),"[2]; 429 mg/kg BW (30 g) acute oral, person, ref Martinez-Chuecos et al. 1992",Toxic symptoms occurred
same,Reported concomitant effects (signs and symptoms),[2]; [7],toxic symptoms occurred
same,Reported erythrocyte AChE activity/inhibition,[2]; [7],Significantly decreased
same,reported or expected adverse health outcome,"[2]; single oral 0.011 mg/kg BW, 0.011 mg/kg",negative
same,reported or expected adverse health outcome,"[2]; single oral 0.011 mg/kg BW, listed as Diazinon, 0.011 mg/kg",No
same,reported or expected adverse health outcome,"[2]; single oral 0.03 mg/kg BW, 0.03 mg/kg",negative
same,reported or expected adverse health outcome,"[2]; single oral 0.03 mg/kg BW, listed as Diazinon, 0.03 mg/kg",No
same,reported or expected adverse health outcome,"[2]; single oral 0.12 mg/kg BW, 0.12 mg/kg",negative
same,reported or expected adverse health outcome,"[2]; single oral 0.12 mg/kg BW, listed as Diazinon, 0.12 mg/kg",No
same,reported or expected adverse health outcome,"[2]; single oral 0.20 mg/kg BW, 0.2 mg/kg",negative
same,reported or expected adverse health outcome,"[2]; single oral 0.20 mg/kg BW, listed as Diazinon, 0.2 mg/kg",No
same,reported or expected adverse health outcome,"[2]; single oral 200 mg/kg BW, 200 mg/kg",positive
same,reported or expected adverse health outcome,"[2]; single oral 200 mg/kg BW, listed as Diazinon, 200 mg/kg",Yes
same,reported or expected adverse health outcome,"[2]; single oral 214 mg/kg BW, 214 mg/kg",positive
same,reported or expected adverse health outcome,"[2]; single oral 214 mg/kg BW, listed as Diazinon, 214 mg/kg",Yes
same,reported or expected adverse health outcome,"[2]; single oral 293 mg/kg BW, 293 mg/kg",positive
same,reported or expected adverse health outcome,"[2]; single oral 293 mg/kg BW, listed as Diazinon, 293 mg/kg",Yes
same,reported or expected adverse health outcome,"[2]; single oral 323 mg/kg BW, 323 mg/kg",positive
same,reported or expected adverse health outcome,"[2]; single oral 323 mg/kg BW, listed as Diazinon, 323 mg/kg",Yes
same,reported or expected adverse health outcome,"[2]; single oral 357 mg/kg BW, 357 mg/kg",positive
same,reported or expected adverse health outcome,"[2]; single oral 357 mg/kg BW, listed as Diazinon, 357 mg/kg",Yes
same,reported or expected adverse health outcome,"[2]; single oral 429 mg/kg BW, 429 mg/kg",positive
same,reported or expected adverse health outcome,"[2]; single oral 429 mg/kg BW, listed as Diazinon, 429 mg/kg",Yes
same,reported or expected adverse health outcome,"[2]; single oral 643 mg/kg BW, 643 mg/kg",positive
same,reported or expected adverse health outcome,"[2]; single oral 643 mg/kg BW, listed as Diazinon, 643 mg/kg",Yes
same,Oral absorption rate constant,[3],0.73 h⁻¹
